From PMC3725995 (Bioorganic & medicinal chemistry letters, 2010)
Where two headings read alike, the source gives them in different places.

Assays:
[1] = target: system LAT1 transporter of the blood–brain barrier (Rattus norvegicus, UniProt Q63016); assay: in situ rat brain perfusion: inhibition of L-[14C]-leucine uptake into rat brain; settings: in vivo
[2] = target: system LAT1 transporter; settings: cited from earlier work; for Ki: read-out: Ki for the system L transporter
[3] = cited from earlier work
[4] = cited from earlier work; remark: listed apart in the source
[5] = read-out: Km for system LAT1 transporter

system LAT1 transporter of the blood–brain barrier, sequence (Q63016 whole entry, the tested form may be a part): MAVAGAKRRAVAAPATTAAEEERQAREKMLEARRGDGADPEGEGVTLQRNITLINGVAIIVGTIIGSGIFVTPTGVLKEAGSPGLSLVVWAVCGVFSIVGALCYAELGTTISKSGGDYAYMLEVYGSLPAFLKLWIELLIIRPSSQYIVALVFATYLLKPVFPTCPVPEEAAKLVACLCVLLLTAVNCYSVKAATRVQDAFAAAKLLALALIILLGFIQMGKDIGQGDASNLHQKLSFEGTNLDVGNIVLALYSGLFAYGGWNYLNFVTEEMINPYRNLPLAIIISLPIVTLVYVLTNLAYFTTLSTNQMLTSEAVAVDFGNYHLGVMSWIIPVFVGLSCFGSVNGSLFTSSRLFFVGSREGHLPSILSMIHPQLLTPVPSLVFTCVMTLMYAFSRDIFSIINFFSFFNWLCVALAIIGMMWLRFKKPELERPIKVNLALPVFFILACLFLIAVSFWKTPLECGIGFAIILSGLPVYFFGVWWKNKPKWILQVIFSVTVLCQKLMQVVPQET
system LAT1 transporter of the blood–brain barrier, sequence (Q794F9 whole entry partner, the tested form may be a part): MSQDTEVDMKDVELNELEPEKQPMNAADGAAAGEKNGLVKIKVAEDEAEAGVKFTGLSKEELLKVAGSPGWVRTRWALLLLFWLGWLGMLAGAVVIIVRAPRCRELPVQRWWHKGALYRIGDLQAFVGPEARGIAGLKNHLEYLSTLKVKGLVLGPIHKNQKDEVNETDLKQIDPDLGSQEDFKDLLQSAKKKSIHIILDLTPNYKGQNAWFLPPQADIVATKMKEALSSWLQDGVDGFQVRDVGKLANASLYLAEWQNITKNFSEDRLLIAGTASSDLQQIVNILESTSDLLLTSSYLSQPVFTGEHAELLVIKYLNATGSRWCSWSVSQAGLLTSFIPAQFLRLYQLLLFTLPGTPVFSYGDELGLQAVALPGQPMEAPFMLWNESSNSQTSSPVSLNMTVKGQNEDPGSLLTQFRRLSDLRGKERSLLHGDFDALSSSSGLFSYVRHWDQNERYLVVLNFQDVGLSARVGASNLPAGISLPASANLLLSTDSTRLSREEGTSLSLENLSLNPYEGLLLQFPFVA

SMILES | times lower affinity for the system LAT1 transporter than 5c [1] [times] | Ki [2] [µM] | Km [2, 5] [µM] | other results
NC1(C(=O)O)CCc2c(cccc2N(CCCl)CCCl)C1 (centres unmarked) [5a] | 100 | ~25 | – | –
NC1(C(=O)O)CCc2ccccc2C1 (racemic) [compound 3, DL-2-amino-1,2,3,4,-tetrahydronaphthoic acid, reference compound] | – | – | 7.1 | –
NC1(C(=O)O)CC2CCC1C2 (centres unmarked) [compound 4, reference compound] | – | – | – | affinity for the system LAT1 transporter ([2]; in vivo): good affinity
NC1(C(=O)O)CCc2ccc(N(CCCl)CCCl)cc2C1 (centres unmarked) [5c] | – | ~0.2 | 0.19 | in vitro antitumor activity compared to melphalan [3]: enhanced; myelosuppressive activity compared to melphalan [4]: reduced; Vmax of uptake into brain by blood–brain barrier system LAT1 transporter [2]: 0.26 nmol/min/g
NC1(C(=O)O)CC2CC1c1cc(N(CCCl)CCCl)ccc12 (mixture of isomers) [compound 7, (±)-2-endo-amino-bis(2-chloroethyl)-7′-aminobenzobicyclo[2.2.1]heptane-2-exo-carboxylic acid] | 25 | – | – | –
N[C@@H](Cc1ccc(N(CCCl)CCCl)cc1)C(=O)O [compound 2, Melphalan, reference compound] | – | – | – | Km ([2]; read-out: Km for system LAT1, estimated): 90 to 150 µM
